Read-outs that look alike come from different tables or passages of the source.
How the values were obtained:
[1] = Crossover dietary trial: serum AED concentration; type: in vivo, canine; conditions: for concentration at 3 months: both sexes, mixed: 17 different breeds and cross breeds, dog, in vivo, read-out: serum concentration of PB
Method: A 6-month prospective, randomized, double blinded, placebo controlled, crossover dietary trial comparing an MCT-containing diet to a standardized placebo diet containing no MCTs in canine epilepsy was performed. Subjects were fed either the MCT or placebo diet for 3 months (Day 1 to Day 90±2 days) followed by a subsequent respective switch of diet for a further 3 months (Day 90 to Day 180±2 days). Relevant data were collected on the following variables at visit 1 (Day −2), visit 2 (Day 90±2 days) and visit 3 (day 180±2 days): seizure frequency; body weight; measurements of serum phenobarbital (PB) and/or (potassium bromide) KBr concentration as appropriate; dynamic bile acids; complete blood cell count; standard clinical serum chemistry; and adverse events.
Seizure frequency refers to the number of seizures per month and seizure-days refers to the number of days in a month with seizure occurrence. The severity of seizures was analyzing using the McNemar test by comparing the presence of cluster seizures between diet groups. Comparisons made between the MCT and placebo standardized diet groups were made using match-paired student's t tests for parametric data and Wilcoxon matched-pairs signed rank test for non-parametric data where both were used two-sided and P<0.05 was considered significant. Non-parametric data are presented as median (25-75% percentile) and parametric data are shown as mean (+/−SD).
The present study used twenty-one dogs of 17 different canine breeds including: American bulldog; 2 Beagles; 2 Border Collies; Boxer; Cavalier King Charles Spaniel; English Bull Terrier; English Springer Spaniel; German Shepherd; Golden Retriever; Lhasa Apso; Mastiff; Rhodesian Ridgeback; Saint Bernard; Siberian Husky; Slovakian Rough Haired Pointer; Welsh Springer Spaniel and 3 Cross breeds. The study population consisted of 15 males, of which 10 were neutered and 5 were intact and 6 females of which 4 were neutered and 2 were intact. The dogs were of 4.59±1.73 years of age and weighed 29.79±14.73 kilograms at start of trial. All 21 dogs received PB. Most dogs were also treated additionally with KBr (n=18). Some dogs were chronically treated with a third AED, imepitoin (n=1) or levetiracetam (n=4). Twelve owners had rectal diazepam or levetiracetam for pulse therapy at home available for the acute treatment of cluster seizure episodes. There was no difference for the acute or chronic treatment regimens between the placebo or MCT phase.

[2] = test system: fifteen year old Dalmatian diagnosed with idiopathic epilepsy; experiment: Example 2 case: Dalmatian with idiopathic epilepsy; type: in vivo, canine; conditions: treatment subsequently discontinued
Text: A fifteen year old Dalmatian was diagnosed with idiopathic epilepsy at age 3. Seizure phases of prodrome, aura, ictus, and postictal state were generally one to two […] in length. […] Subsequent treatment was proscribed in the form of an MCT diet (commercially available ProPlan® Senior 7+Chicken and Rice formula formulated to contain 5.6% MCTs, at least 26% crude protein, at least 15% crude fat, and 50% carbohydrates with less than 2% as crude fiber).

Row | Structure (SMILES) | concentration at 3 months ([1]; MCT diet, spread 25.00-36.75 μg/ml, p=0.4233, no significant change) [µg/mL] | concentration at 3 months ([1]; placebo-standardized diet, spread 23.50-34.00 μg/ml) [µg/mL] | serum concentration of potassium bromide ([1]; MCT diet, spread 1.02-1.61 mg/ml, p=0.4037, no significant change) [µg/mL] | serum concentration of potassium bromide ([1]; placebo-standardized diet, spread 1.09-1.89 mg/ml) [µg/mL] | side effects [2]
1 | CCC1(c2ccccc2)C(=O)NC(=O)NC1=O [PB, phenobarbital] | 32.5 | 26.5 |  |  | 
2 | [Br-].[K+] [potassium bromide] |  |  | 1290 | 1230 | polyphagia, sedation, and ataxia
